Laboratory results from patent US8946507B2, “Method of selectively producing male or female sterile plants” (priority 2002, dated 2015).

What was measured:
[1] = tested on: Nicotiana tabacum var. Samsun (transgenic, D-amino acid oxidase under female floral promoter); experiment: Conditional female sterility of transgenic tobacco expressing D-amino acid oxidase in female floral tissue, treated with D-amino acids; format: in vivo; conditions: for seed production after treatment: foliar spray usually 0.25-20 kg/ha, root drench or 10-200 mM solution into buds, prior to or during early flower formation; for viable pollen production after treatment: same treatment conditions as for seed production
Experimental: Tobacco leaf discs are transformed with the recombinant binary vectors using methods similar to those described in Horsch et al (1985) Science, 227, 1229-1231 Many variations of the method may be used. The binary vector can be transformed into, for example, Agrobacterium tumefaciens strain LBA 4404 using the freeze thaw method of transformation. Tobacco transformation and whole plant regeneration is performed using Nicotiana tabacum var. Samsun according to protocols described by Draper et al (Plant Genetic Transformation, Blackwell Sci. Pub. 1989). Transformation events are selected on MS-media containing kanamycin or other suitable antibiotic. The presence of integrated transgenes is confirmed by PCR. Plants are regenerated and allowed to reach maturity and selfed on to produce seed. Northern and/or Western analysis is used to confirm tissue-specific expression of the D-amino acid oxidase genes. […] Seeds of the T1 generation are planted out. Once plantlets have grown to a sufficient size they are tested by PCR for the presence of transgene. PCR positive plants are transferred to the greenhouse. […] A subset of these (putatively) conditionally sterile plants are treated with D-phosphinothricin or D-alanine or D leucine or D asparagine or D methionine or D-aspartate or D-glutamate in various amounts and at varying growth stages. […] For example these amino acids are pure D enantiomers or, alternatively, are DL racemates. For example, they are applied as a foliar spray, prior to or during the early stages of flower formation, at rates usually between 0.25 and 20 kg/ha. Amino acids which may crystallise out of solution on the leaves following foliar application may be redissolved and remobilised for leaf uptake by further applications of water as a spray mist. Amino acids are, for example, also applied as a root drench and optionally, further applied as ˜50 ul of a 10-200 mM solution flooded directly into the buds of emerging florets. Pollen from the treated plants is collected and viability is tested. […] Control plants are both transgenic and non-transgenic and are grown under identical conditions and under an identical regime of physical treatments except that treatment solutions are either water or an equivalent concentration of pure L-amino acid.

[2] = tested on: mutant forms of R. gracilis D amino acid oxidase; experiment: Oxygen electrode assay, control experiments with pure enantiomers; format: biochemical, Rhodotorula gracilis; conditions: rate relative to DL phosphinothricin, depending on concentration
Experimental: Approximately 7 g wet weight of cells is washed in water. The cells are resuspended in an equal volume of 50 mM/Mops/KOH buffer at pH 7.0 containing 2 mM EDTA, 2 mM DTT and 0.01 mM FAD. Cells are evenly suspended using a glass homogeniser and then disrupted using a one shot head in the Constant Systems (BudBrooke Rd, Warwick U.K.) Basic Z cell disrupter at 13500 psi. The crude extract is kept cold (˜4° C.) centrifuged at 30,000 gav for 1 h and the pellet discarded. Some of the extract protein is run out on an SDS PAGE gel stained with Coomassie Blue and, through side by side comparison with similarly prepared extracts of cells containing only ‘empty’ pET vector it is estimated that 2-50% of the total soluble protein in the extract is D-amino acid oxidase. Some of the extract protein is exchanged into 50 mM Mops/KOH buffer at pH 7.0 containing 0.01 mM FAD. This is diluted with the same buffer in a standard oxygen electrode cell (calibrated at 25° C. between zero and a saturated concentration of oxygen). Optionally, the D-amino acid oxiadse is further purified using ion-exchange, phenyl sepharose, fractional ammonium sulphate precipitation and gel filtration. Assays, at 25° C., are started by addition of a 200 mM solution of the ammonium salt of DL phosphinothricin to the diluted enzyme. […] Rates of oxygen consumption (after substraction of any drift in the bases line) are measured. […]

[3] = tested on: wheat containing a PAT gene under barley plastocyanin promoter region; experiment: Reproductive tolerance of wheat containing PAT gene under barley plastocyanin promoter to DL phosphinothricin; format: in vivo; conditions: rates up of at least 2 kg/ha
Source text: The current invention provides a method of overcoming the problem of enabling the use of a cheap commercial herbicide, DL phosphinothricin, as both weed control and hybridising agent in the production of hybrid cereals and which method, furthermore, provides resultant hybrid cereals or rice in which DL phosphinothricin (or L phosphinothricin) can be safely used for weed control without substantial loss of yield. As a yet further benefit, selfed seed from the F1 generation which may later arise as volunteers in subsequent crops will be easier to manage since they, themselves, will generally be sterile if sprayed with controlling amounts of DL phosphinothricin. The same will hold for the progeny of pollen outcrossing from the F1 plants to weeds (e.g. red rice) or other cereals. The current invention provides genes and enzymes that convert a non-phytotoxic component, D-phosphinothricin, of a commercial herbicide formulation DL phosphinothricin, into the active L form. The PAT gene which converts L-phosphinothricin to N-acetyl L-phosphinithricin is known already and is used commercially to provide tolerance to DL phosphinothricin in crops. […]

[4] = tested on: tobacco plants (transgenic, TA 29 D-amino acid oxidase and plastocyanin/PAT); experiment: Transgenic tobacco (TA 29 D-amino acid oxidase plus plastocyanin promoter PAT) sprayed with DL phosphinothricin; format: in vivo; conditions: spray, rates between 250 g/ha and 5 kg/ha
Source text: Analagous to example 1, in one variant of the example, the amino acid applied is racemic DL phosphinothricin. In this case the DNA construct used for transformation comprises, in addition to the DNA sequence encoding a D-amino acid oxidase under operable expression control of a tissue specific male floral promoter region such as ‘TA 29’, also a DNA sequence encoding a phosphinothricin N-acetyl transferase gene such as the ‘PAT’ gene under operable control of a promoter region such as that from the plastocyanin gene (in this case the region from the Pisum sativum plastocyanin gene).

[5] = target: T1, M213R (arginine replacement for methionine) mutant form of R. gracilis D amino acid oxidase (Rhodotorula toruloides, UniProt P80324, M213R); experiment: Oxygen electrode assay of D-amino acid oxidase activity, M213R mutant, crude E. coli extract; format: biochemical; conditions: 25° C., 50 mM Mops/KOH pH 7.0, 0.01 mM FAD; ammonium salt of DL phosphinothricin; estimated enzyme purity in extract 35+/-15% of total protein
T1 construct: made in house; host or cells: E. coli BL21 DE3 (Novagen pET 24A, T7 promoter)
Source text: (§1) Additionally a series of particular DNA sequences encoding particularly targeted D-amino acid oxidase enzymes are generated. In particular, genes encoding Rhodotorula gracilis D amino acid oxidase with an arginine, serine, cysteine, lysine, asparagine or alanine replacing the methionine at position 213 and/or a histidine, serine, cysteine, asparagine or alanine replacing the tyrosine at position 238. The methods used are the same as described above except that, rather than a mixture of oligonucleotides, individual oligonucleotide pairs are designed and used to effect each single or double amino acid change. Each resulting mutant D-amino acid oxidase coding sequence is cloned for (untagged) expression behind the T7 promoter in Novagen pET 24A and transformed into E. coli BL21 DE3. The cells are grown in a 1.0 l fermenter in LCM50 medium supplemented with 100 ug/ml kanamycin, induced for expression with 1 mM IPTG and harvested by low-speed centrifugation.
(§2) Approximately 7 g wet weight of cells is washed in water. The cells are resuspended in an equal volume of 50 mM/Mops/KOH buffer at pH 7.0 containing 2 mM EDTA, 2 mM DTT and 0.01 mM FAD. […] Rates of oxygen consumption (after substraction of any drift in the bases line) are measured. […]

[6] = tested on: Nicotiana tabacum (transgenic, stig 1 D-amino acid oxidase and plastocyanin/PAT); experiment: Transgenic tobacco (stig1 D-amino acid oxidase M213R plus plastocyanin promoter PAT) sprayed with DL phosphinothricin; format: in vivo
Source text: In one variant of the method, the amino acid applied is racemic DL phosphinothricin. In this case, the DNA construct used for transformation comprises, in addition to the DNA sequence encoding a D-amino acid oxidase under operable expression control of a tissue specific female floral promoter region such as ‘stig 1’, also a DNA sequence (EMBL: A02774) a ‘PAT’ gene under operable control of a promoter region such as the region 5′ of the translational start of the plastocyanin gene of the Pisum sativum plastocyanin gene (EMBL accession number X16082). For example, the construct is the same as depicted in FIG. 1 except that the DNA sequence encoding D-amino acid oxidase is site-specifically mutated so that the M213R form of the enzyme is encoded. The plastocyanin promoter region provides for preferential expression in the green tissues of the plant. […] Thus, in this variant of the example, the non-phytotoxic substance D phosphinothricin is applied in its least costly and most readily available form as the commercial herbicide DL phosphinothricin racemate.

[7] = target: T2, M213S (serine replacement for methionine) mutant form of R. gracilis D amino acid oxidase (Rhodotorula toruloides, UniProt P80324, M213S); experiment: Oxygen electrode assay of D-amino acid oxidase activity, M213S mutant, crude E. coli extract; format: biochemical; conditions: 25° C., 50 mM Mops/KOH pH 7.0, 0.01 mM FAD; ammonium salt of DL phosphinothricin; estimated enzyme purity in extract 35+/-15% of total protein
T2 construct: made in house; host or cells: E. coli BL21 DE3 (Novagen pET 24A, T7 promoter)
Source text: as §1, §2

[8] = spray, rates between 250 g/ha and 5 kg/ha

Structure (SMILES)	seed production after treatment [1]	viable pollen production after treatment [1]	further results
C[C@@H](N)C(=O)O [D alanine]	relatively little or no seed	near normal levels of viable pollen	–
NC(=O)C[C@@H](N)C(=O)O [D asparagine]	relatively little or no seed	near normal levels of viable pollen	–
N[C@H](CC(=O)O)C(=O)O [D aspartate]	relatively little or no seed	near normal levels of viable pollen	–
N[C@H](CCC(=O)O)C(=O)O [D glutamate]	relatively little or no seed	near normal levels of viable pollen	–
CC(C)C[C@@H](N)C(=O)O [D leucine]	relatively little or no seed	near normal levels of viable pollen	–
CSCC[C@@H](N)C(=O)O [D methionine]	relatively little or no seed	near normal levels of viable pollen	–
CP(=O)(O)CC[C@@H](N)C(=O)O [D-phosphinothricin]	relatively little or no seed	near normal levels of viable pollen	oxidation of pure enantiomer in control experiments [2]: up to twice the rate that the DL is
CP(=O)(O)CCC(N)C(=O)O (stereo not drawn) [DL phosphinothricin]	–	–	reproductive tolerance to application [3]: substantially reproductively tolerant; female fertility of treated plants [4]: normal or near-normal female fertility; male fertility of treated plants [4]: conditionally male sterile; visible damage of treated plants [4]: not visibly damaged; rate of oxidation (oxygen consumption) [5]: ~14 nmol/min/mg of protein of crude extract; yield of plastocyanin/PAT plants without D to L converting activity in floral tissues ([6]; no heterologous D-amino acid oxidase co-expressed in floral tissues): no significant loss of yield; reproductive tolerance to the herbicide of plants with plastocyanin promoter/PAT gene ([6]; rates in excess of 2 kg/ha): substantially complete reproductive tolerance; female fertility of treated plants [6, 8]: conditionally female sterile; male fertility of treated plants [6, 8]: normal or near-normal male fertility; visible damage of treated plants [6, 8]: not visibly damaged; rate of oxidation (oxygen consumption) [7]: ~4 nmol/min/mg of protein of crude extract
CP(=O)(O)CC[C@H](N)C(=O)O [L-form, L-phosphinothricin, reference compound]	–	–	oxidation of pure enantiomer in control experiments [2]: not oxidised at all
